Source: patent publication US20110021530A1, “PYRIDAZINE DERIVATIVES AND THEIR USE AS THERAPEUTIC AGENTS IN THE TREATMENT OF SKIN DISORDERS” (XENON PHARMACEUTICALS INC., priority 2008, published 2011)

Key:
[1] = target: T1, stearoyl-CoA desaturase (SCD) (Mus musculus, UniProt P13516); assay: HTS microsomal assay of stearoyl-CoA desaturase inhibition using mouse liver microsomes; format: biochemical; conditions: % SCD enzyme activity remaining at 10 μM test compound
T1 construct: Reactions are started by adding 2 mg of microsomal protein; from tissue; host or cells: liver microsomes of male ICR mice on a high-carbohydrate, low fat diet
T1 sequence (P13516 1-355): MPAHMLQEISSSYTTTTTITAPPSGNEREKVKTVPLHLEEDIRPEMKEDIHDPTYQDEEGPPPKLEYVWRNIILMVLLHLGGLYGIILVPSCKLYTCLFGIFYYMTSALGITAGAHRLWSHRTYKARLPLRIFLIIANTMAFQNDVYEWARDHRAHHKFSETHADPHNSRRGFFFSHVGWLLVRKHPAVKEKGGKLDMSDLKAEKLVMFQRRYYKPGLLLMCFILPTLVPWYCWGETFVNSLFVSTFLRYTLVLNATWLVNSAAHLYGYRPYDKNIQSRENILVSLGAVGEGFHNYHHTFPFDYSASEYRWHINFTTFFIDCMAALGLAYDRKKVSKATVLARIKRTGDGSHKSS
Method: The absence of mitochondrial contamination is enzymatically assessed.
The compounds are analyzed with an HTS microsomal assay.

HEPG2 = HEPG2 IC50; format: cell-based; conditions: Homo sapiens
SCD = target: T2, SCD (Mus musculus, UniProt P13516); assay: Mouse SCD IC50 determination for compounds active in the HTS assay; format: biochemical
T2 sequence (P13516 1-355): T1 sequence (P13516 1-355)
Method: The compounds are analyzed with an HTS microsomal assay. The activities are defined in terms of % SCD enzyme activity remaining at the selected concentration (e.g., 10 μM) of the test compounds.

Mouse microsome SCD activity % remaining @ 10 μM [1] [%]	IC50 (HEPG2) [nM]	IC50 (SCD) [nM]	Structure (SMILES)
15	230	60	O=C(NCCc1ccccc1)Nc1ccc(N2CCN(C(=O)c3ccccc3C(F)(F)F)CC2)nn1
73			O=C(Nc1ccc(N2CCN(C(=O)c3ccccc3C(F)(F)F)CC2)nn1)Nc1ccccc1F [1-(2-FLUOROPHENYL)-3-{6-[4-(2-TRIFLUOROMETHYLBENZOYL)PIPERAZIN-1-YL]-PYRIDAZIN-3-YL}UREA]
6	30	70	O=C(NCc1ccc(F)cc1)Nc1ccc(N2CCN(C(=O)c3ccccc3C(F)(F)F)CC2)nn1 [1-(4-FLUOROBENZYL)-3-{6-[4-(2-TRIFLUOROMETHYLBENZOYL)PIPERAZIN-1-YL]-PYRIDAZIN-3-YL}UREA]
82			O=C(Nc1ccc(F)cc1)Nc1ccc(N2CCN(C(=O)c3ccccc3C(F)(F)F)CC2)nn1 [1-(4-FLUOROPHENYL)-3-{6-[4-(2-TRIFLUOROMETHYLBENZOYL)PIPERAZIN-1-YL]-PYRIDAZIN-3-YL}UREA]
8	50	40	O=C(NCc1ccccc1)Nc1ccc(N2CCN(C(=O)c3ccccc3C(F)(F)F)CC2)nn1 [1-BENZYL-3-{6-[4-(2-TRIFLUOROMETHYLBENZOYL)PIPERAZIN-1-YL]PYRIDAZIN-3-YL}UREA]
13	210	70	CCCCNC(=O)Nc1ccc(N2CCN(C(=O)c3ccccc3C(F)(F)F)CC2)nn1 [1-BUTYL-3-{6-[4-(2-TRIFLUOROMETHYLBENZOYL)PIPERAZIN-1-YL]PYRIDAZIN-3-YL}UREA]
6	40	10	CCCCCNC(=O)Nc1ccc(N2CCN(C(=O)c3ccccc3C(F)(F)F)CC2)nn1 [1-PENTYL-3-{6-[4-(2-TRIFLUOROMETHYLBENZOYL)PIPERAZIN-1-YL]PYRIDAZIN-3-YL}UREA]
45			CC(NC(=O)Nc1ccc(N2CCN(C(=O)c3ccccc3C(F)(F)F)CC2)nn1)c1ccc(F)cc1 (centres unmarked) [1-[1-(4-Fluorophenyl)ethyl]-3-{6-[4-(2-trifluoromethylbenzoyl)piperazin-1-yl]pyridazin-3-yl}urea]
14	350	1370	O=C(NCCCc1ccc(F)cc1)Nc1ccc(N2CCN(C(=O)c3ccccc3C(F)(F)F)CC2)nn1 [1-[3-(4-Fluorophenyl)propyl]-3-{6-[4-(2-trifluoromethylbenzoyl)piperazin-1-yl]pyridazin-3-yl}urea]
18	5430	2770	CCOC(=O)CCNC(=O)Nc1ccc(N2CCN(C(=O)c3ccccc3C(F)(F)F)CC2)nn1 [3-(3-{6-[4-(2-TRIFLUOROMETHYLBENZOYL)PIPERAZIN-1-YL]-PYRIDAZIN-3-YL}-UREIDO)PROPIONIC ACID ETHYL ESTER]
69			COC(=O)C(CC(C)C)NC(=O)c1ccc(N2CCN(C(=O)c3ccccc3C(F)(F)F)CC2)nn1 (centres unmarked) [4-METHYL-2-({6-[4-(2-TRIFLUOROMETHYLBENZOYL)PIPERAZIN-1-YL]-PYRIDAZINE-3-CARBONYL}AMINO)PENTANOIC ACID METHYL ESTER]
37			CC(C)(C)OC(=O)N1CCN(c2ccc(C(=O)NCCC3CC3)nn2)CC1 [4-[6-(2-CYCLOPROPYLETHYLCARBAMOYL)PYRIDAZIN-3-YL]PIPERAZINE-1-CARBOXYLIC ACID T-BUTYL ESTER]
11	1450		CC(C)CCNC(=O)c1ccc(N2CCN(C(=O)OC(C)(C)C)CC2)nn1 [4-[6-(3-METHYLBUTYLCARBAMOYL)PYRIDAZIN-3-YL]PIPERAZINE-1-CARBOXYLIC ACID T-BUTYL ESTER]
22			O=C(NCCC1CC1)c1ccc(N2CCN(C(=O)C3CCCCC3)CC2)nn1 [6-(4-CYCLOHEXANECARBONYLPIPERAZIN-1-YL)PYRIDAZINE-3-CARBOXYLIC ACID (2-CYCLOPROPYLETHYL)AMIDE]
61			CC(C)CCNC(=O)c1ccc(N2CCN(C(=O)c3nnn(Cc4ccccc4)c3C(F)(F)F)CC2)nn1 [6-[4-(1-BENZYL-5-TRIFLUOROMETHYL-1H-[1,2,3]TRIAZOLE-4-CARBONYL)-PIPERAZIN-1-YL]PYRIDAZINE-3-CARBOXYLIC ACID (3-METHYLBUTYL)AMIDE]
73			O=C(NCCC1CC1)c1ccc(N2CCN(C(=O)C3(O)CC3)CC2)nn1 [6-[4-(1-HYDROXYCYCLOPROPANECARBONYL)PIPERAZIN-1-YL]PYRIDAZINE-3-CARBOXYLIC ACID (2-CYCLOPROPYLETHYL)AMIDE]

Mouse microsome SCD activity % remaining @ 10 μM [1] [%]	IC50 (HEPG2) [nM]	IC50 (SCD) [nM]	Structure (SMILES)
15	440	350	CC(C)CCNC(=O)c1ccc(N2CCN(C(=O)c3cnn(C)c3C(F)(F)F)CC2)nn1 [6-[4-(1-METHYL-5-TRIFLUOROMETHYL-1H-PYRAZOLE-4-CARBONYL)PIPERAZIN-1-YL]-PYRIDAZINE-3-CARBOXYLIC ACID (3-METHYLBUTYL)AMIDE]
26			CC(C)CCNC(=O)c1ccc(N2CCN(C(=O)C3(C(F)(F)F)CC3)CC2)nn1 [6-[4-(1-TRIFLUOROMETHYLCYCLOPROPANECARBONYL)PIPERAZIN-1-YL]-PYRIDAZINE-3-CARBOXYLIC ACID (3-METHYLBUTYL)AMIDE]
8	210	230	O=C(NCCC1CC1)c1ccc(N2CCN(Cc3ccc(Cl)cc3Cl)CC2)nn1 [6-[4-(2,4-DICHLOROBENZYL)-PIPERAZIN-1-YL]PYRIDAZINE-3-CARBOXYLIC ACID (2-CYCLOPROPYLETHYL)AMIDE]
36			CCC(CC)C(=O)N1CCN(c2ccc(C(=O)NCCC3CC3)nn2)CC1 [6-[4-(2-ETHYLBUTYRYL)PIPERAZIN-1-YL]PYRIDAZINE-3-CARBOXYLIC ACID (2-CYCLOPROPYLETHYL)AMIDE]
0			O=C(NCCc1ccccc1)c1ccc(N2CCN(C(=O)c3ccccc3C(F)(F)F)CC2)nn1 [6-[4-(2-Trifluoromethylbenzoyl)piperazin-1-yl]pyridazine-3-carboxylic acid phenethylamide]
61			CC(C)CCNC(=O)c1ccc(N2CCN(C(=O)c3c(C(F)(F)F)nnn3Cc3ccccc3)CC2)nn1 [6-[4-(3-BENZYL-5-TRIFLUOROMETHYL-3H-[1,2,3]TRIAZOLE-4-CARBONYL)PIPERAZIN-1-YL]PYRIDAZINE-3-CARBOXYLIC ACID (3-METHYLBUTYL)AMIDE]
19			CC(C)CCNC(=O)c1ccc(N2CCN(C(=O)C(C)CC(F)(F)F)CC2)nn1 (centres unmarked) [6-[4-(4,4,4-TRIFLUORO-2-METHYLBUTYRYL)PIPERAZIN-1-YL]PYRIDAZINE-3-CARBOXYLIC ACID (3-METHYLBUTYL)AMIDE]
11	2530		CC(C)CCNC(=O)c1ccc(N2CCN(C(=O)CC(C)C(F)(F)F)CC2)nn1 (centres unmarked) [6-[4-(4,4,4-TRIFLUORO-3-METHYLBUTYRYL)PIPERAZIN-1-YL]PYRIDAZINE-3-CARBOXYLIC ACID (3-METHYLBUTYL)AMIDE]
42			CC(C)CCNC(=O)c1ccc(N2CCN(C(=O)CCC(F)(F)F)CC2)nn1 [6-[4-(4,4,4-TRIFLUOROBUTYRYL)PIPERAZIN-1-YL]PYRIDAZINE-3-CARBOXYLIC ACID (3-METHYLBUTYL)AMIDE]
29			CC(C)CCNC(=O)c1ccc(N2CCN(C(=O)N3CCN(C)CC3)CC2)nn1 [6-[4-(4-METHYLPIPERAZINE-1-CARBONYL)PIPERAZIN-1-YL]PYRIDAZINE-3-CARBOXYLIC ACID (3-METHYLBUTYL)AMIDE]
12		90	O=C(NCCC1CC1)c1ccc(N2CCN(C(=O)c3cc(Cl)ccc3C(F)(F)F)CC2)nn1 [6-[4-(5-CHLORO-2-TRIFLUOROMETHYLBENZOYL)PIPERAZIN-1-YL]PYRIDAZINE-3-CARBOXYLIC ACID (2-CYCLOPROPYLETHYL)AMIDE]
94			O=C(NCCC1CC1)c1ccc(N2CCN(C(=O)c3ccccn3)CC2)nn1 [6-[4-(PYRIDINE-2-CARBONYL)PIPERAZIN-1-YL]PYRIDAZINE-3-CARBOXYLIC ACID (2-CYCLOPROPYLETHYL)AMIDE]
24			CC(c1ccccc1C(F)(F)F)N1CCN(c2ccc(C(=O)NCCC3CC3)nn2)CC1.Cl (centres unmarked) [6-{4-[1-(2-TRIFLUOROMETHYLPHENYL)ETHYL]PIPERAZIN-1-YL}-PYRIDAZINE-3-CARBOXYLIC ACID (2-CYCLOPROPYLETHYL)AMIDE HYDROCHLORIDE]
10		590	O=C(NCCC1CC1)c1ccc(N2CCN(C(=O)Cc3ccccc3C(F)(F)F)CC2)nn1 [6-{4-[2-(2-TRIFLUOROMETHYLPHENYL)ACETYL]PIPERAZIN-1-YL}PYRIDAZINE-3-CARBOXYLIC ACID (2-CYCLOPROPYLETHYL)AMIDE]
46			CC(=O)Oc1ccccc1C(=O)N1CCN(c2ccc(C(=O)NCCC3CC3)nn2)CC1 [ACETIC ACID 2-{4-[6-(2-CYCLOPROPYLETHYLCARBAMOYL)PYRIDAZIN-3-YL]-PIPERAZINE-1-CARBONYL}PHENYL ESTER]
